Test results published in patent US20150225454A1, “TETRABRANCHED PEPTIDES AND ANALOGUES AS A NEW CLASS OF ANTIMICROBIALS AND THEIR PREPARATION THEREOF” (priority 2012, published 2015).
Converted amounts (≈) assume the structure as drawn. Like-named read-outs stand apart in the source and are kept apart here. Where a SMILES comes first, the peptide text is derived from it. Bridges are numbered along the chain shown (N, C = ends). Roman numbers before positions name the chains, in order.

What was measured:
C. albicans ATCC 10231 = assay: Antifungal activity after incubation with trypsin; assay type: cell-based; settings: trypsin:peptide 1:100, 37° C., up to 6 h
Method: For all the experiments, unless otherwise stated, ATCC 10231 strain was used. B4010 (1 mg/ml) was incubated with trypsin (enzyme:peptide ratio 1:100) at 37° C. 20 μL aliquot of this mixture was withdrawn at various time intervals (0.5, 1, 2, 4 and 6 h) and mixed with 1 μL of trypsin inhibitor. The antifungal activity of the peptide was determined by adding this mixture to 180 μl of inoculum and monitoring the growth at OD600 for 24 h. Similar experiments performed in the presence of trypsin/trypsin inhibitor (without B4010) were used as a positive control. For assessing the antifungal activity in tear fluid (TF), the peptide was dissolved in freshly collected rabbit TF and incubated at 37° C. for 6 h. After incubation, an equal volume of an overnight culture of C. albicans (˜10^6 CFU/ml) was mixed with peptides in tear fluid and incubated at 37° C. for 24 h. The final concentrations of the peptide were at 4.4, 8.8 and 22 μM. A 100 μL aliquot of serial dilutions (10^2 or 10^3 times) of this mixture were inoculated on a SD agar plate and then incubated for 48 h at 37° C. Culture alone and culture with 50% tear fluid served as the positive control. […]
The peptide B4010 was incubated with trypsin (trypsin:peptide ratio=1:100) at 37° C. An aliquot of this mixture was withdrawn at various time intervals, added to the C. albicans inoculum and the growth was monitored (FIG. 3C).

[1] = Acute in vivo toxicity in mice; design: species or system C57BL6 mice
Method: Acute toxicity of B4010 was assessed with C57BL6 (6-8 weeks old) wild type mice. Two healthy wild type mice were chosen for each route of administration. B4010 was delivered through intra-peritoneal (200 mg/kg) or (100 mg/kg) intra-venous routes. Two animals were used for each administration and monitored through 24/48 h to determine mortality, or signs of toxicity.

[2] = Calcein release from mammalian model membrane SUVs; settings: PC:Cholesterol, compared with fungal model membrane
Method: Small unilamellar vesicles (SUVs) were prepared using PC/PE/PI or PS lipids (5:2.5:2.5) containing 15 wt % ergosterol or PC/Cholesterol (10:1) (Makovitzki et al., 2006). For the preparation of PC/PE/PI or PS/Erg SUV, the lipids were dissolved in chloroform/methanol (2:1, v/v) in a glass tube. Ergosterol was dissolved in same solvent and added to lipid mixture to make final ergosterol content of 15 wt %. The Lipid-ergosterol mixture was dried using nitrogen gas to form lipid layer. The film was hydrated in a buffer containing 20 mM PBS (pH 7), vortexed and sonicated. Each cycle of sonication (5 sec, 40° C.) is followed by freezing in liquid nitrogen and thawing on a water bath kept at 37° C. The procedure was repeated 5-6 times until an optically clear dispersion appeared. The SUV was divided into two parts. To the first part 50 mM calcein was added and incubated for 1 h. […] Changes in the fluorescence signal after addition of peptide or Triton X-100 was measured on a PTI spectrofluorometer, using an excitation wavelength of 480 nm and emission wavelength of 512 nm. The Percentage calcein released at each time point was calculated using the equation: […]
Where A0 is the observed fluorescence intensity upon addition of peptides, Amin is the average intensity at the baseline (before peptide addition), Amax is the average intensity at the saturation phase after adding 1% Triton X-100. […]

[3] = Calcein release from fungal model membrane SUVs; settings: peptide:lipid ratio 1:30 and 1:15
Method: For the preparation of PC/PE/PI or PS/Erg SUV, the lipids were dissolved in chloroform/methanol (2:1, v/v) in a glass tube. Ergosterol was dissolved in same solvent and added to lipid mixture to make final ergosterol content of 15 wt %. The Lipid-ergosterol mixture was dried using nitrogen gas to form lipid layer. The film was hydrated in a buffer containing 20 mM PBS (pH 7), vortexed and sonicated. Each cycle of sonication (5 sec, 40° C.) is followed by freezing in liquid nitrogen and thawing on a water bath kept at 37° C. The procedure was repeated 5-6 times until an optically clear dispersion appeared. The SUV was divided into two parts. To the first part 50 mM calcein was added and incubated for 1 h. The excess calcein was removed by injecting 100 μL of the calcein-loaded SUV's into a Ultrahydrogel™ 250 (7.8 mm×300 mm) column equilibrated with 20 mM PBS (pH 7.0) and eluted isochratically at a flow rate of 1 ml/min for 1.5 column volumes. The calcein-loaded liposomes were mixed with calcein-free liposome (1:1) to adjust final liposome concentration. Peptide concentration was added to obtain 1:30 or 1:15 peptide:liposome ratio. Changes in the fluorescence signal after addition of peptide or Triton X-100 was measured on a PTI spectrofluorometer, using an excitation wavelength of 480 nm and emission wavelength of 512 nm. The Percentage calcein released at each time point was calculated using the equation: […]
Similar protocol was followed for the preparation of PC/Cholesterol SUVs.

S. cerevisiae = assay type: cell-based
Method: A few identical colonies from WT and mutant strains were immediately inoculated and grown overnight in SD broth containing 0.1 mg/ml ampicilin at 30° C. Cells were harvested by centrifugation, washed with sterile water and frozen. Cells were plated again on SD agar plates and incubated at 37° C. for 48 h. Two or three identical colonies of the mutant strains were collected and inoculated in SD broth. Peptides were dissolved in sterile water and mixed with WT and mutant strains and incubated at 37° C. for 48 or 72 h in a test tube. The lowest concentration of the peptide that inhibited the growth of the yeast strain was determined by visual inspection.

C. albicans = assay: Candidacidal activity (cell viability) in the presence of metal ions; assay type: cell-based; settings: 5.5 μM
Method: To study the effects of metal ions on viability, the broth solution containing C. albicans (OD600=0.4-0.6) was adjusted to appropriate final concentrations of metal ions, incubated with 5.5 μM of B4010 for 6 h and the cell viability was determined as before after 48 h.

Structure (SMILES): CC(C)[C@H](NC(=O)[C@H](CCCCN)NC(=O)[C@H](CCCNC(=N)N)NC(=O)CNC(=O)[C@@H](N)CCCNC(=N)N)C(=O)N[C@H](C(=O)N[C@@H](CCCNC(=N)N)C(=O)N[C@@H](CCCNC(=N)N)C(=O)NCCCC[C@H](NC(=O)[C@H](CCCNC(=N)N)NC(=O)[C@H](CCCNC(=N)N)NC(=O)[C@@H](NC(=O)[C@@H](NC(=O)[C@H](CCCCN)NC(=O)[C@H](CCCNC(=N)N)NC(=O)CNC(=O)[C@@H](N)CCCNC(=N)N)C(C)C)C(C)C)C(=O)NCCCC[C@H](NC(=O)[C@H](CCCCNC(=O)[C@H](CCCNC(=N)N)NC(=O)[C@H](CCCNC(=N)N)NC(=O)[C@@H](NC(=O)[C@@H](NC(=O)[C@H](CCCCN)NC(=O)[C@H](CCCNC(=N)N)NC(=O)CNC(=O)[C@@H](N)CCCNC(=N)N)C(C)C)C(C)C)NC(=O)[C@H](CCCNC(=N)N)NC(=O)[C@H](CCCNC(=N)N)NC(=O)[C@@H](NC(=O)[C@@H](NC(=O)[C@H](CCCCN)NC(=O)[C@H](CCCNC(=N)N)NC(=O)CNC(=O)[C@@H](N)CCCNC(=N)N)C(C)C)C(C)C)C(=O)N[C@@H](CCCCN)C(=O)O)C(C)C [Peptide B4010] (I: H-RGRKVVRRKKK-OH / II: H-RGRKVVRRK / III: H-RGRKVVRR / IV: H-RGRKVVRR; amide I:9-IV:C, I:10-II:C, II:9-III:C; N-terminus and C-terminus assumed)
- antifungal activity after trypsin incubation (C. albicans ATCC 10231): No loss of antifungal activity
- mortality, morbidity or toxicity ([1]; IP 200 mg/kg): no sign of mortality, morbidity or toxicity
- mortality, morbidity or toxicity ([1]; IV 100 mg/kg): no sign of mortality, morbidity or toxicity
- calcein leakage [2]: less calcein leakage
- calcein release [3]: about 68%
- MIC (S. cerevisiae; RH448, Wildtype, Ergosterol (77%)): 5.5 µM (≈ 25.1 µg/mL)
- MIC (S. cerevisiae; RH5684, erg6Δ): 2.8 µM (≈ 12.8 µg/mL)
- MIC (S. cerevisiae; RH5812, erg2Δ): 1.4 µM (≈ 6.39 µg/mL)
- MIC (S. cerevisiae; RH5930, erg3Δerg6Δ): 1.4 µM (≈ 6.39 µg/mL)
- MIC (S. cerevisiae; RH6826, 7-deoxycholesterol): 2.8 µM (≈ 12.8 µg/mL)
- MIC (S. cerevisiae; RH6827, Campasterol): 2.8 µM (≈ 12.8 µg/mL)
- MIC (S. cerevisiae; RH6829, Cholesterol): 2.8 µM (≈ 12.8 µg/mL)
- decrease in MIC of ergΔ mutants compared to the wild type (S. cerevisiae; all the ergΔ mutants): 2-4 fold
- decrease in MIC compared to the wild type (S. cerevisiae; erg2Δ, erg3Δ, erg3Δerg6Δ and erg4Δerg5Δ): 4 folds
- increased sensitivity compared to the wild type (S. cerevisiae; erg2Δerg6Δ and erg6Δ): 2 fold
- candidacidal activity (C. albicans; high concentration of KCl): slight decrease in the candidacidal activity
- cell viability (C. albicans; presence of monovalent and divalent cations): complete loss of viable cells
